Measured values taken from ChEMBL document CHEMBL1151749, “Discovery of quinazolines as histamine H4 receptor inverse agonists using a scaffold hopping approach” (J Med Chem, 2008).

The molecules below were run against T1, Histamine H4 receptor (Homo sapiens, UniProt Q9H3N8) (assay: Displacement of [3H]histamine from human histamine H4 receptor expressed in HEK cells).
T1 sequence (Q9H3N8 whole entry): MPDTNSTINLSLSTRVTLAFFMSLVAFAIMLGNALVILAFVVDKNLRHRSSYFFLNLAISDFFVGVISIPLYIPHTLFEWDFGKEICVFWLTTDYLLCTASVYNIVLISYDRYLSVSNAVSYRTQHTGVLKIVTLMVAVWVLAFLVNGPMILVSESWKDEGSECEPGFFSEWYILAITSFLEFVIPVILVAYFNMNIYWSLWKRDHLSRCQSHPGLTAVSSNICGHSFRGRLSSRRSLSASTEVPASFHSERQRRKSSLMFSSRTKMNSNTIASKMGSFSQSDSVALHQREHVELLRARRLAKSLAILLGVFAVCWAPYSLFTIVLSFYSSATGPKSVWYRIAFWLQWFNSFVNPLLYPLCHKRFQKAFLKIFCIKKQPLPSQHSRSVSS
Format: cell-based, HEK293
`CN1CCN(c2nc(NCc3ccc(N)cc3)c3cc(Cl)ccc3n2)CC1` was tested, and the Ki was 562 nM. `CN1CCN(c2nc3ccc(Cl)cc3nc2OCc2ccccc2)CC1` gave a Ki of 269 nM. In the case of `CNc1nc(N2CCC3(CCN(C)C3)C2)nc2ccc(Cl)cc12` (configuration not stated), the Ki is reported as > 1000 nM. `CN1CCN(c2nc(NCc3ccsc3)c3cc(Cl)ccc3n2)CC1` gave a Ki of 35.5 nM. For `Cc1noc(CNc2nc(N3CCN(C)CC3)nc3ccc(Cl)cc23)n1`, the Ki was 372 nM. For `CN1CCN(c2nc(NCCO)c3cc(Cl)ccc3n2)CC1`, the Ki was 575 nM. For `Cc1cc(Cl)cc2c(NCc3ccco3)nc(N3CCN(C)CC3)nc12`, the Ki was 186 nM. `CN1CCN(c2nc(Oc3ccccc3)c3ccccc3n2)CC1` showed a Ki of 2820 nM. With `CNc1nc(NCC2CCN(C)C2)nc2ccc(Cl)cc12` (configuration not stated) the Ki was > 1000 nM. `CNc1nc(N2CCN3CCCC3C2)nc2ccc(Cl)cc12` (configuration not stated) gave a Ki of 141 nM. For `CNc1nc(N2CCN(C)CC2)nc2ccc(Cl)cc12`, the Ki was 70.8 nM. For `CNc1nc(N2CC3CCCNC3C2)nc2ccc(Cl)cc12` (configuration not stated), the Ki was > 1000 nM. For `Cc1ccsc1CNc1nc(N2CCN(C)CC2)nc2ccc(Cl)cc12`, the Ki was 33.9 nM. With `CN1CCN(c2nc(NCc3ccc(F)cc3)c3cc(Cl)ccc3n2)CC1` the Ki was 105 nM. For `CN1CCN(c2nc(N(C)C)c3cc(Cl)ccc3n2)CC1`, the Ki was 617 nM. `CN1CCN(c2nc(NCc3nccs3)c3cc(Cl)ccc3n2)CC1` was tested, and the Ki was 105 nM. With `Cc1csc(CNc2nc(N3CCN(C)CC3)nc3ccc(Cl)cc23)c1` the Ki was 38.9 nM. In the case of `CN1CCN(c2nc(NCc3ccco3)c3ccccc3n2)CC1`, the Ki is reported as 603 nM. With `CNc1nc(N2CC[C@H](NC)C2)nc2ccc(Cl)cc12` the Ki was > 1000 nM. `CN1CCN(c2nc(Nc3ccccc3)c3ccccc3n2)CC1` was tested, and the Ki was 8510 nM. Molecule `CN1CCN(c2nc(NCc3ccco3)c3cc(Cl)ccc3n2)CC1` has a Ki of 89.1 nM. In the case of `CNc1nc(N2CCN(C)CC2)nc2cccc(C)c12`, the Ki is reported as 692 nM. `CNc1nc(N2CCC3(CCN(C)CC3)CC2)nc2ccc(Cl)cc12` was tested, and the Ki was > 1000 nM. With `CN1CCN(c2nc(NCc3cncs3)c3cc(Cl)ccc3n2)CC1` the Ki was 107 nM. In the case of `CN1CCN(c2nc(NCc3cc4ccccc4s3)c3cc(Cl)ccc3n2)CC1`, the Ki is reported as 269 nM. For `CNc1nc(N2CCN(C)CC2)nc2cc(Cl)ccc12`, the Ki was 955 nM. `CN1CCN(c2nc(NCc3ccoc3)c3cc(Cl)ccc3n2)CC1` was tested, and the Ki was 26.9 nM. For `CN1CCN(c2nc(NCCc3ccccc3)c3ccccc3n2)CC1`, the Ki was 1480 nM. `CN1CCN(c2nc(NCc3ccc(C#N)cc3)c3cc(Cl)ccc3n2)CC1` was tested, and the Ki was 129 nM. Work on `CN1CCN(c2nc(NCc3ccccc3)c3cc(Cl)ccc3n2)CC1` yielded a Ki of 257 nM. `COc1ccc(CNc2nc(N3CCN(C)CC3)nc3ccc(Cl)cc23)cc1` showed a Ki of 363 nM. For `CN1CCN(c2nc(O)c3cc(Cl)ccc3n2)CC1`, the Ki was 15100 nM. In the case of `CC(C)Nc1nc(N2CCN(C)CC2)nc2ccc(Cl)cc12`, the Ki is reported as 759 nM. Molecule `CN1CCN(c2nc(NCCc3ccccc3)c3cc(Cl)ccc3n2)CC1` has a Ki of 240 nM. With `CN1CCN(c2nc(NCC3CCCCC3)c3cc(Cl)ccc3n2)CC1` the Ki was 589 nM. Work on `CNc1nc(N2CCN3CCC[C@H]3C2)nc2ccc(Cl)cc12` yielded a Ki of 155 nM. For `CNc1nc(N2CCCC2CN2CCN(C)CC2)nc2ccc(Cl)cc12` (configuration not stated), the Ki was > 1000 nM. With `CNc1nc(N2CCCN(C)CC2)nc2ccc(Cl)cc12` the Ki was > 1000 nM. With `CN1CCN(c2nc(OCc3ccccc3)c3ccccc3n2)CC1` the Ki was 4070 nM. For `CNc1nc(N2CC[C@@H](N)C2)nc2ccc(Cl)cc12`, the Ki was > 1000 nM. `CNc1nc(N2CCN(C)CC2C)nc2ccc(Cl)cc12` (configuration not stated) was tested, and the Ki was > 1000 nM. With `CN1CCN(c2nc(N)c3ccccc3n2)CC1` the Ki was 2140 nM. In the case of `CNc1nc(N2C[C@H]3CNC[C@H]3C2)nc2ccc(Cl)cc12`, the Ki is reported as > 1000 nM. Work on `CN1CCN(c2nc(NCc3ccco3)c3cc(F)ccc3n2)CC1` yielded a Ki of 224 nM. `CNc1nc(N2CC[C@H](N)C2)nc2ccc(Cl)cc12` was tested, and the Ki was > 1000 nM. For `CNc1nc(N2CC(C)N(C)C(C)C2)nc2ccc(Cl)cc12` (configuration not stated), the Ki was > 1000 nM. Work on `Cc1ccc(CNc2nc(N3CCN(C)CC3)nc3ccc(Cl)cc23)o1` yielded a Ki of 135 nM. Work on `CN1CCN(c2nc(NCCc3cccs3)c3cc(Cl)ccc3n2)CC1` yielded a Ki of 60.3 nM. `CNc1nc(NCC2CCN(C)CC2)nc2ccc(Cl)cc12` was tested, and the Ki was > 1000 nM. For `CN1CCN(c2nc(NCc3ccccc3)c3ccccc3n2)CC1`, the Ki was 1070 nM. In the case of `CNc1nc(NCCC2CCN(C)C2)nc2ccc(Cl)cc12` (configuration not stated), the Ki is reported as > 1000 nM. `CCOC(=O)CNc1nc(N2CCN(C)CC2)nc2ccc(Cl)cc12` was tested, and the Ki was 955 nM. For `CN1CCN(c2nc(N)c3cc(Cl)ccc3n2)CC1`, the Ki was 105 nM.

What follows are molecules tested against Histamine H1 receptor (Homo sapiens, UniProt P35367) (assay: Displacement of [3H]mepyramine from human histamine H1 receptor expressed in NIH3T3 cells).
Sequence of Histamine H1 receptor (P35367 whole entry): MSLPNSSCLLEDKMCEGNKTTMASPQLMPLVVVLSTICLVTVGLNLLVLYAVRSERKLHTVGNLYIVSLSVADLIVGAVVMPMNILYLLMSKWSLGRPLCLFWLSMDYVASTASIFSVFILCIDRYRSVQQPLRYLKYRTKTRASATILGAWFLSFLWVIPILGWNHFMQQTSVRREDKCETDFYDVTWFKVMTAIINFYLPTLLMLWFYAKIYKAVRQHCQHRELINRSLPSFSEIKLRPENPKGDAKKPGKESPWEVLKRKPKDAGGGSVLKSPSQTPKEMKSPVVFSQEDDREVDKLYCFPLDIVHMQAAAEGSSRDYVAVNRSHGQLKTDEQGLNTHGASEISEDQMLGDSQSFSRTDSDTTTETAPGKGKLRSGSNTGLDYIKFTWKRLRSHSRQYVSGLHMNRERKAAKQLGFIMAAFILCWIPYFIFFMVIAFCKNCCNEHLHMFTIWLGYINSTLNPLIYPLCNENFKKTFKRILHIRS
Format: cell-based
`CN1CCN(c2nc(NCc3ccoc3)c3cc(Cl)ccc3n2)CC1` was tested, and the Ki was 97.7 nM.

Each molecule was assayed against T1, Histamine H4 receptor (assay: Inverse agonist activity at human histamine H4 receptor expressed in HEK293T cells by CRE-beta-galactosidase assay).
Format: functional, cell-based, HEK-293T
For `CN1CCN(c2nc(NCc3ccoc3)c3cc(Cl)ccc3n2)CC1`, the IC50 was 145 nM.

Each molecule was assayed against Histamine H4 receptor (Rattus norvegicus, UniProt Q91ZY1) (assay: Binding affinity to rat histamine H4 receptor).
Sequence of Histamine H4 receptor (Rattus norvegicus, UniProt Q91ZY1) (Q91ZY1 whole entry): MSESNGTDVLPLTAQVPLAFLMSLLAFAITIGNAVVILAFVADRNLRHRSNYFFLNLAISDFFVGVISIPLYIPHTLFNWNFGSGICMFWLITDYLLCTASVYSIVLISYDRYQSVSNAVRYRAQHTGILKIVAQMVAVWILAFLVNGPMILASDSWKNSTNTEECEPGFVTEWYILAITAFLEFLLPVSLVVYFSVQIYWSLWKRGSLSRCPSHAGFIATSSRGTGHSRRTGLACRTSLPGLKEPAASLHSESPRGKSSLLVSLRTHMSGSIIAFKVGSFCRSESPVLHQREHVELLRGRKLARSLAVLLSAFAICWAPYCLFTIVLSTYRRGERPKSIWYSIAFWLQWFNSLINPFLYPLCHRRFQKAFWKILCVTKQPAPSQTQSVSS
`CN1CCN(c2nc(NCc3cccs3)c3cc(Cl)ccc3n2)CC1` gave a Ki of 15.8 nM. Work on `CN1CCN(c2nc(NCc3ccoc3)c3cc(Cl)ccc3n2)CC1` yielded a Ki of 24.5 nM.
